Results reported in US12655104B2, “Anticancer compounds selective for ER-positive cancers” (THE BOARD OF TRUSTEES OF THE UNIVERSITY OF ILLINOIS, priority 2020, dated 2026).
Where two headings read alike, the source gives them in different places.

Experiments:
HCT-116 = experiment: Alamar blue fluorescence viability (IC50), HCT-116; type: cell-based; details: for IC50: Homo sapiens
Method: Cancer Cell Lines: Culturing Conditions and Validation. All cell lines were cultured at 37° C. with 5% CO2. All ERα-positive cell lines were grown in media lacking phenol red. MCF-7 were grown in EMEM with 10% FBS and 1% penicillin-streptomycin (P/S). T47D were cultured in MEM with 10% FBS and 1% P/S. TYS and TDG cells were grown in MEM supplemented with 10% CD-FBS and 1% P/S. HCT-116 and MDA-MB-231 cells were cultured in RPMI-1640 supplemented with 10% FBS and 1% P/S. MDA-MB-436 cells were cultured in DMEM supplemented with 10% FBS and 1% P/S. HT-29 were cultured in McCoy's media supplemented with 10% FBS and 1% P/S. All cell lines were used directly from ATCC stocks and/or have been further authenticated using PowerPlex16HS Assay (Promega) as described previously.^54 In short, >1 million cells were harvested and lysed using the cell lysis buffer (50 mM Tris, 50 mM EDTA, 25 mM sucrose, 100 mM NaCl, 1% SDS, pH 8). DNA extraction and short tandem repeats (STRs) profiling for each cell line were carried out at the University of Arizona Genetics Core (UAGC). Autosomal STR profiles were compared to reference databases such as ATCC, DSMZ, and JCRB.
Alamar Blue Fluorescence for Anticancer Activity (IC50). 2,000-15,000 cells per well were seeded a 96-well plate. Cells were allowed to adhere before DMSO stock solutions of test compounds were added to each well with a final concentration of DMSO in each well=1%; final volume: 100 μL. At the end of the desired incubation time (e.g., 24 or 72 hours), media in each well was aspirated and new fresh media (no compound, 100 μL) was added. Alamar blue solution (4 mg resazurin per 40 mL PBS) was then added (10 μL). After 2-6 hours incubation, each well's fluorescence (λexcit.=555 nm, λemission.=585 nm) was measured using a SpectraMax M3 plate reader (Molecular Devices). Percent dead was determined by comparison to a 100% dead control: 100 μM raptinal treated cells. Dose dependent curves and IC50 were calculated using Origin Pro V10.

[1] = test system: anticipatory unfolded protein response (a-UPR); experiment: a-UPR immunoblotting/western blot in MCF-7 cells; type: cell-based
Method: a-UPR Immunoblotting/Western Blot Procedure. 400,000 MCF-7 cells/per well were seeded into 6 or 12 well plates and allowed to adhere overnight. Media was then aspirated from each well and then fresh media with diluted test compound (0.1% DMSO concentration) was added accordingly. Cells were incubated for 4 or 6 hours, then harvested. PBS-washed cell pellets were then lysed using RIPA buffer containing phosphatase (BioVision) and protease inhibitor cocktail (Calbiochem). Protein concentrations were determined using the BCA assay (Pierce). Lysates containing 10-15 μg of protein were loaded onto 4-20% gradient gels (BioRad), and SDS-PAGE was run. Proteins were then transferred onto membrane (PDVF Millipore) and blots blocked with BSA solution (2 g in 40 mL TBST) for one hour. After blocking, primary antibody was added and incubated overnight (using manufacturer's recommended dilutions). Following overnight incubation, blots were washed with TBST (5-minute incubation for each wash, washed 3 times), then incubated with HRP-linked secondary antibody for 1 hour in TBST. Blots were washed (10-minute incubation for each wash for a total of two ten-minute washes). SuperSignal West Pico Solution was then added following manufacturer's procedures and blots imaged with ChemiDoc.
Antibodies. […]

[2] = Simulated gastric fluid (SGF) stability assay; type: in vitro ADME; details: 100 μM in SGF with pepsin, 120 min
Method: Simulated Gastric Fluid (SGF) Stability Assay. SGF was prepared fresh by adding 3.2 g pepsin (Sigma Aldrich P7000) to 1000 mL of SGF (Fischer Scientific 7108-16) and the pH adjusted to 1.2 using a pH meter. This SGFwith pepsin solution was then warmed to 37° C. 990 μL of warmed SGFwith pepsin was then aliquoted into multiple Eppendorf tubes, followed by 10 μL of 10 mM DMSO stock solutions of test compounds. Erythromycin (MedChemExpress HY-B0220) is a positive control for this stability assay. Samples were incubated at 37° C. for the entire experiment with vortexing every 15 minutes. At each desired time point (0, 15, 30, 60, 120 minutes), a 100 μL aliquot is removed and quenched into 50 μL of acetonitrile. Samples are stored at 4° C. until all time points are complete. Samples were then vortexed and then clarified at 3,000 RPM for 10 minutes in a 4° C. centrifuge. Supernatants were collected and compound concentrations determined by LC-MS/MS (UIUC Metabolomics Center, Urbana, IL.). Determined compound concentrations were used to calculate percent remaining compared to t=0 samples.

O=C1Nc2c(C(F)(F)F)cccc2[C@@]1(c1ccc(O)cc1)N1CCC(F)(F)CC1 (single isomer, unassigned) [ErSO-DFP]
Fold Change (HCT-116; Average Fold Change between 24/72 hr IC50 values for MCF-7 and HCT-116): 3235 | effects bottom out at (% cell death at lower concentrations) (HCT-116; HCT-116 cells, bottom of IC50 curve): ~0% | IC50 (HCT-116; HCT-116, 24 h, read-out: IC50 24 hr (μM)): 55 µM | IC50 (HCT-116; HCT-116, 72 h, read-out: IC50 72 hr (μM)): 55 µM | a-UPR activation (P-AMPK, P-EIF2α, cleavage of ATF6α p90), western blot [1]: activates the a-UPR in a time- and concentration-dependent manner | % Remaining after 120 min (SD) [2]: 13±1%
